Data: patent US9447044B2, “Thioaryl derivatives as GPR120 agonists” (LG LIFE SCIENCES LTD., priority 2012, dated 2016)
pEC50: −log10 of the molar value.

Target: T1, hGPR120 (Homo sapiens, UniProt Q5NUL3)
T1 construct: expressed in transfected cells; host or cells: CHO-K1
T1 sequence (Q5NUL3 1-361): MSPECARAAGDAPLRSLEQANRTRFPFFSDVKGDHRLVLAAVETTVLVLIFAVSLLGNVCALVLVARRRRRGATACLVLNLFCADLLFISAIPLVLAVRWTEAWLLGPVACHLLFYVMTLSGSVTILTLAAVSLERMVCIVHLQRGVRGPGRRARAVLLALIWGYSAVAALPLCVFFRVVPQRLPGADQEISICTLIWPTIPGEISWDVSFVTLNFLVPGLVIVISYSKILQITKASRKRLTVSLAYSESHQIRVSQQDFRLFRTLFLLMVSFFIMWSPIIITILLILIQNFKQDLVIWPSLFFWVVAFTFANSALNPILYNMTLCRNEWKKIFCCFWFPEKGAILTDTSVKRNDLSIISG
Assay: Measurement of activity of GPR120 agonist (cell-based assay), calcium fluorescence
Conditions: CHO-K1 cells expressing Ga16 and hGPR120, Calcium 5 dye fluorescence
In short: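 CHO-K1 cells co-expressing Gα16 and hGPR120, loaded with Calcium 5 dye for 1 h at 37° C, received serially diluted agonists (final 0.5% DMSO). Fluorescence (Ex 485/Em 525 nm) was expressed as relative percent over 0.1% DMSO-only wells; activity binned as A >20 μM, B 20–2 μM, C 2–0.2 μM, D <0.2 μM.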

SMILES | pEC50 (activity class) | pEC50 (numeric value)
CC(C)Sc1cccc(COc2ccc(C3CC3C(=O)O)cc2F)n1 (single isomer, unassigned) [Example 131, 2-[3-fluoro-4-(6-isopropylsulfanyl-pyridin-2-ylmethoxy)-phenyl]-cyclopropane carboxylic acid] | 5.70 to 6.70 | –
CC(Cc1ccc(OCc2cccc(SC3CCCC3)n2)c(Cl)c1)C(=O)O (centres unmarked) [Example 94, 3-[3-chloro-4-(6-cyclopentylsulfanyl-pyridin-2-ylmethoxy)-phenyl]-2-methyl-propionic acid] | > 6.70 | –
CC(Cc1cc(F)c(OCc2cccc(SC3CCC3)n2)c(F)c1)C(=O)O (centres unmarked) [Example 46, 3-[4-(6-cyclobutylsulfanyl-pyridin-2-ylmethoxy)-3,5-difluoro-phenyl]-2-methyl-propionic acid] | > 6.70 | –
O=C(O)CCCc1ccc(OCc2cccnc2SC2CCCC2)cc1 [Example 21, 4-[4-(2-cyclopentylsulfanyl-pyridin-3-ylmethoxy)-phenyl]-butyric acid] | – | 7.17
CC(Cc1cc(F)c(OCc2cccnc2SCC2CC2)c(F)c1)C(=O)O (centres unmarked) [Example 50, 3-[4-(2-cyclopropylmethylsulfanyl-pyridin-3-ylmethoxy)-3,5-difluoro-phenyl]-2-methyl-propionic acid] | > 6.70 | –
O=C(O)CC1COc2c1cc(F)c(OCc1cccnc1SC1CCCC1)c2F (centres unmarked) [Example 123, [6-(2-cyclopentylsulfanyl-pyridin-3-ylmethoxy)-5,7-difluoro-2,3-dihydro-benzofuran-3-yl]-acetic acid] | > 6.70 | –
O=C(O)CCc1ccc(OCc2cccc(SC3CCCC3)n2)cc1F [Example 177] | 5.70 to 6.70 | –
CCc1ccc(COc2c(F)cc(CCC(=O)O)cc2F)c(SC(C)C)n1 [Example 32] | 5.70 to 6.70 | –
O=C(O)CCc1ccc(OCc2cccnc2SCC2CC2)cc1F [Example 178] | 5.70 to 6.70 | –
Cc1ccc(COc2ccc(CCC(=O)O)cc2Cl)c(SC(C)C)n1 [Example 160, 3-[3-chloro-4-(2-isopropylsulfanyl-6-methyl-pyridin-3-ylmethoxy)-phenyl]-propionic acid] | – | 6.69
O=C(O)C1CC1c1ccc(OCc2cccc(SCC3CC3)n2)c(Cl)c1 (centres unmarked) [Example 128, 2-[3-chloro-4-(6-cyclopropylmethylsulfanyl-pyridin-2-ylmethoxy)-phenyl]-cyclopropane carboxylic acid] | – | 7.38
O=C(O)CCc1ccc(OCc2cccc(SC3CCC3)n2)c(F)c1 [Example 148, 3-[4-(6-cyclobutylsulfanyl-pyridin-2-ylmethoxy)-3-fluoro-phenyl]-propionic acid] | > 6.70 | –
O=C(O)CCc1ccc(OCc2cccc(SCC3CC3)n2)c(Cl)c1 [Example 142, 3-[3-chloro-4-(6-cyclopropylmethylsulfanyl-pyridin-2-ylmethoxy)-phenyl]-propionic acid] | – | 7.96
O=C(O)C1CC1c1ccc(OCc2cccnc2SC2CCC2)c(F)c1 (centres unmarked) [Example 88, 2-[4-(2-cyclobutylsulfanyl-pyridin-3-ylmethoxy)-3-fluoro-phenyl]-cyclopropane carboxylic acid] | – | 4.24
O=C(O)CCc1ccc(OCc2cccnc2SC2CCC2)c(Cl)c1 [Example 158, 3-[3-chloro-4-(2-cyclobutylsulfanyl-pyridin-3-ylmethoxy)-phenyl]-propionic acid] | > 6.70 | –
O=C(O)CCc1ccc(OCc2cccc(SC3CCCC3)n2)c(Cl)c1 [Example 143, 3-[3-chloro-4-(6-cyclopentylsulfanyl-pyridin-2-ylmethoxy)-phenyl]-propionic acid] | > 6.70 | –
O=C(O)C1CC1c1ccc(OCc2cccnc2SC2CCC2)c(Cl)c1 (centres unmarked) [Example 102, 2-[3-chloro-4-(2-cyclobutylsulfanyl-pyridin-3-ylmethoxy)-phenyl]-cyclopropane carboxylic acid] | > 6.70 | –
CCC(C)Sc1cccc(COc2ccc(CC(C)C(=O)O)cc2F)n1 (centres unmarked) [Example 53, 3-[4-(6-sec-butylsulfanyl-pyridin-2-ylmethoxy)-3-fluoro-phenyl]-2-methyl-propionic acid] | 5.70 to 6.70 | –
CC(C)Sc1ncccc1COc1ccc(CCC(=O)O)cc1Cl [Example 77, 3-[3-chloro-4-(2-isopropylsulfanyl-pyridin-3-ylmethoxy)-phenyl]-propionic acid] | > 6.70 | –
Cc1ncc(COc2c(F)cc(CCC(=O)O)cc2F)c(SC(C)C)n1 [Example 71, 3-[3,5-difluoro-4-(4-isopropylsulfanyl-2-methyl-pyrimidin-5-ylmethoxy)-phenyl]-prop ionic acid] | 5.70 to 6.70 | –
O=C(O)CC1COc2cc(OCc3cccnc3SC3CCCC3)ccc21 (centres unmarked) [Example 74, [6-(2-cyclopentylsulfanyl-pyridin-3-ylmethoxy)-2,3-dihydro-benzofuran-3-yl]-acetic acid] | > 6.70 | –
O=C(O)C1CC1c1ccc(OCc2cccnc2SC2CCCC2)c(Cl)c1 (centres unmarked) [Example 101, 2-[3-chloro-4-(2-cyclopentylsulfanyl-pyridin-3-ylmethoxy)-phenyl]-cyclopropane carboxylic acid] | > 6.70 | –
O=C(O)CCc1ccc(OCc2cccc(SCC3CC3)n2)c(F)c1 [Example 151, 3-[4-(6-cyclopropylmethylsulfanyl-pyridin-2-ylmethoxy)-3-fluoro-phenyl]-propionic acid] | > 6.70 | –
COc1ccc(COc2ccc(C3CC3C(=O)O)cc2Cl)c(SC(C)C)n1 (centres unmarked) [Example 109, 2-[3-chloro-4-(2-isopropylsulfanyl-6-methoxy-pyridin-3-ylmethoxy)-phenyl]-cyclopropane carboxylic acid] | 5.70 to 6.70 | –
O=C(O)C1CC1c1ccc(OCc2cccc(SC3CCCC3)n2)c(Cl)c1 (centres unmarked) [Example 100, 2-[3-chloro-4-(6-cyclopentylsulfanyl-pyridin-2-ylmethoxy)-phenyl]-cyclopropane carboxylic acid] | > 6.70 | –
O=C(O)CCc1ccc(OCc2cccc(SC3CCC3)n2)cc1F [Example 176] | – | 6.75
CC(Cc1cc(F)c(OCc2cccnc2SC2CCCC2)c(F)c1)C(=O)O (centres unmarked) [Example 47, 3-[4-(2-cyclopentylsulfanyl-pyridin-3-ylmethoxy)-3,5-difluoro-phenyl]-2-methyl-propionic acid] | > 6.70 | –
O=C(O)C1CC1c1cc(F)c(OCc2cccnc2SC2CCC2)c(F)c1 (centres unmarked) [Example 36, 2-[4-(2-cyclobutylsulfanyl-pyridin-3-ylmethoxy)-3,5-difluoro-phenyl]-cyclopropane carboxylic acid] | > 6.70 | –
O=C(O)C1CC1c1cc(F)c(OCc2cccnc2SCC2CC2)c(F)c1 (single isomer, unassigned) [Example 137, 2-[4-(2-cyclopropylmethylsulfanyl-pyridin-3-ylmethoxy)-3,5-difluoro-phenyl]-cyclopropane carboxylic acid] | > 6.70 | –
